Laboratory results: the NIST ThermoML archive (doi:10.1016/j.jct.2018.07.017)

Columns and labels:
[1] = for vapor or sublimation pressure: Transpiration method
[2] = Molar enthalpy of transition or fusion; details: Crystal; DSC

CC(C)(O)C(=O)O [2-hydroxy-2-methylpropanoic acid]
Details	mass density [kg/m3]
[1], 293 K, 101.33 kPa, Crystal, Pycnometric method	1240

[1]
Details	Normal melting temperature [°C]	vapor or sublimation pressure [kPa]
313.3 K, Crystal	–	0.005081
318.2 K, Crystal	–	0.008221
323.2 K, Crystal	–	0.01418
328.1 K, Crystal	–	0.02187
333.1 K, Crystal	–	0.03606
338.1 K, Crystal	–	0.05555
343.1 K, Crystal	–	0.08884
347.8 K, Crystal	–	0.139
356 K, Liquid	–	0.2724
359.8 K, Liquid	–	0.3463
363.7 K, Liquid	–	0.4479
367.7 K, Liquid	–	0.5693
369.3 K, Liquid	–	0.6241
371.7 K, Liquid	–	0.7211
373 K, Liquid	–	0.7664
375.6 K, Liquid	–	0.8814
377.1 K, Liquid	–	0.9824
379.5 K, Liquid	–	1.093
379.6 K, Liquid	–	1.097
Crystal, DTA	75	–

Details	Molar enthalpy of transition or fusion [kcal/mol]
[2]	4.21
